We go through 34 compounds from patent US4623662A, “Antiatherosclerotic ureas and thioureas” (American Cyanamid Company, priority 1985, dated 1986).

The target in this experiment is T1, fatty acyl CoA: cholesterol acyl transferase (ACAT) (Rattus norvegicus, UniProt O70536).
T1 construct: The supernatant, containing the microsomal fraction, served as the source of the cholesterol-esterifying enzyme; from tissue; host or cells: rat adrenals, supernatant of 1,000 x g centrifugation containing the microsomal fraction
T1 sequence (O70536 1-545): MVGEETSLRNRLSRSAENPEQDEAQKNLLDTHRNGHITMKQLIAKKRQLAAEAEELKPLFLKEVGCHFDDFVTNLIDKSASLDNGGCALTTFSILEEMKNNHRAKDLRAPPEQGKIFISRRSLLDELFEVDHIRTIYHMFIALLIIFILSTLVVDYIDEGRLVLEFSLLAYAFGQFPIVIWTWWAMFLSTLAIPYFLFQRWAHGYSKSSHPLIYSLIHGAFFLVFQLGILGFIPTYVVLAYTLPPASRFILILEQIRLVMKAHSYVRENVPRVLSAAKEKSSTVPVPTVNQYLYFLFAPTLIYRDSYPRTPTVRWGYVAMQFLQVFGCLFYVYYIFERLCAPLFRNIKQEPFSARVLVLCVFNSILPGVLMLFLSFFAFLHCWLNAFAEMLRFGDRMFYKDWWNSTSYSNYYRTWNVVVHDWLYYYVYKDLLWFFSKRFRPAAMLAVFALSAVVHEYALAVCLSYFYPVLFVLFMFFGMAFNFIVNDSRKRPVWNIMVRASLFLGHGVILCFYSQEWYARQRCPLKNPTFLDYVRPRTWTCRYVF
The experiment in a line: Inhibition of fatty acyl CoA:cholesterol acyl transferase (ACAT), rat adrenal enzyme. It is filed as biochemical. The protocol: The compounds of the present invention were assayed for two types of biological activity related to their potential use as antiatherosclerotic agents. Compounds were tested in vitro for the ability to inhibit the enzyme fatty acyl CoA: cholesterol acyl transferase (ACAT) and in vivo for serum hypolipidemic activity as meausred by the ability to inhibit lipid absorption in rats.
The compounds were tested for their ability to inhibit ACAT according to the following procedure: rat adrenals were homogenized in 0.2M monobasic potassium phosphate buffer, pH 7.4, and centrifuged at 1,000 times gravity for 15 minutes at 5° C. The supernatant, containing the microsomal fraction, served as the source of the cholesterol-esterifying enzyme, fatty acyl CoA:cholesterol acyl transferase (ACAT). A mixture comprising 50 parts of adrenal supernatant, 10 parts of bovine serum albumin (50 mg/ml), 3 parts of test compound (final concentration 5.2 μg/ml), and 500 parts of buffer was preincubated at 37° C. for 10 minutes. After treatment with 20 parts of oleoyl CoA (^14 C-0.4 μCi), the mixture was incubated at 37° C. for 10 minutes. A control mixture, omitting the test compound, was prepared and treated in the same manner. The lipids from the incubation mixture was extracted into an organic solvent and separated by thin-layer chromatography. The cholesteryl ester fraction was counted in a scintillation counter. This procedure is a modification of that described by Hashimoto, et al., Life Scie., 12 (Part II), 1-12 (1973).
Compounds which produced statistically significant inhibition of the ACAT enzyme are considered to be active.
In addition to the above described test and the results given in terms of percent inhibition, various compounds of this invention were tested by the same procedure at several concentrations. The results of this test are given in Table II in terms of IC50 (μM), that concentration which produced 50% inhibition of the ACAT enzyme.

[1] abbreviates: rat adrenal ACAT, final concentration 5.2 μg/ml, read-out: % Inhibition.

Read-outs that look alike come from different tables or passages of the source.

As for “1-[(4-Butylphenyl)methyl]-1-[6-[(methylsulfonyl)oxy]-hexyl]-3-[(2,4,5-trimethylphenyl)methyl]urea”, for the setting “rat adrenal ACAT, final concentration 5.2 μg/ml”, the “% Inhibition” value is 90.0%.

In the case of `CC(C)(C)CCN(Cc1ccc(Cl)cc1)C(=O)Nc1ccc(F)cc1F` [1-(3,3-Dimethylbutyl)-1-(4-chlorobenzyl)-3-(2,4-difluorophenyl)urea], testing at 5.2 µg/mL gave an inhibition of 90%.

`CC(C)(C)CCN(Cc1ccc(Cl)cc1)C(=O)Nc1cccc(C(F)(F)F)c1` [1-(3,3-Dimethylbutyl)-1-(4-chlorobenzyl)-3-(3-trifluoromethylphenyl)urea] registered an inhibition at 5.2 µg/mL of 90%.

`CCCCc1ccc(CN(CCC(C)(C)C)C(=O)Nc2cccc(C(F)(F)F)c2)cc1` [1-(3,3-Dimethylbutyl)-1-[4-(n-butyl)benzyl]-3-(3-trifluoromethylphenyl)urea] gave an inhibition at 5.2 µg/mL of 90%.

Regarding `Cc1ccc(CCN(Cc2ccc3c(c2)OCO3)C(=O)Nc2ccc(C)cc2C)cc1` [1-(3,4-Methylenedioxybenzyl)-1-[2-(4-methylphenyl)ethyl]-3-(2,4-dimethylphenyl)urea], the inhibition at 5.2 µg/mL under setting [1] came out at 41.2%.

Regarding `Cc1ccc(NC(=O)N(CCC(c2ccccc2)c2ccccc2)c2ccc3c(c2)OCO3)c(C)c1` [1-(3,4-Methylenedioxyphenyl)-1-(3,3-diphenylpropyl)-3-(2,4-dimethylphenyl)urea], under setting [1], the inhibition at 5.2 µg/mL was 87.8%.

With `CCCCN(Cc1ccc(Br)cc1)C(=O)Nc1ccc(C)cc1C` [1-(4-Bromobenzyl)-1-(n-butyl)-3-(2,4-dimethylphenyl)urea], under setting [1], the inhibition at 5.2 µg/mL amounted to 81%.

As for `O=C(Nc1ccc(Cl)cc1C(F)(F)F)N(Cc1ccc(Cl)cc1)Cc1cccc2ccccc12` [1-(4-Chlorobenzyl)-1-(1-naphthylmethyl)-3-(2-trifluoromethyl-4-chlorophenyl)urea], the inhibition at 5.2 µg/mL under setting [1] was found to be 83%.

For `CCCCCOc1ccc(CN(Cc2ccc(CCCCC)cc2)C(=O)Nc2ccc(Cl)cc2C)cc1` [1-(4-n-Pentylbenzyl)-1-(4-n-pentyloxybenzyl)-3-(2-methyl-4-chlorophenyl)urea], the inhibition at 5.2 µg/mL under setting [1] was 91%.

For `CCCCCOc1ccc(CN(Cc2ccc(CCCCC)cc2)C(=O)Nc2ccc(Cl)cc2C(F)(F)F)cc1` [1-(4-n-Pentylbenzyl)-1-(4-n-pentyloxybenzyl)-3-(2-trifluoromethyl-4-chlorophenyl)urea], the inhibition at 5.2 µg/mL under setting [1] was determined as 81%.

Turning to `CCCCCOc1ccc(CN(Cc2ccc(CCCCC)cc2)C(=O)Nc2cccc(C(F)(F)F)c2)cc1` [1-(4-n-Pentylbenzyl)-1-(4-n-pentyloxybenzyl)-3-(3-trifluoromethylphenyl)urea], the inhibition at 5.2 µg/mL under setting [1] was 85%.

Take `Cc1cc(Cl)cc(C)c1NC(=O)N(CCCCCC(C)O)Cc1ccc(CC(C)(C)C)cc1` (stereo not shown) [1-(6-Hydroxyheptyl)-1-[4-(2,2-dimethylpropyl)benzyl]-3-(4-chloro-2,6-dimethylphenyl)urea]: half-maximal inhibition (rat adrenal ACAT, several concentrations) (IC50) required 1130 nM.

Turning to `CCCCN(Cc1c(Cl)cccc1Cl)C(=O)Nc1ccc(C)cc1C` [1-( -n-Butyl)-1-(2,6-dichlorobenzyl)-3-(2,4-dimethylphenyl)urea], the inhibition at 5.2 µg/mL under setting [1] came out at 74.5%.

On to `CCCCN(Cc1ccccc1Cl)C(=O)Nc1ccc(C)cc1C` [1-( -n-Butyl)-1-(2-chlorobenzyl)-3-(2,4-dimethylphenyl)urea], for which the inhibition at 5.2 µg/mL under setting [1] came out at 95.5%.

Regarding `CCCCN(Cc1ccccc1F)C(=O)Nc1ccc(C)cc1C` [1-( -n-Butyl)-1-(2-fluorobenzyl)-3-(2,4-dimethylphenyl)urea], the inhibition at 5.2 µg/mL under setting [1] worked out at 83.6%.

With `CCCCc1ccc(CN(CCCC)C(=O)Nc2ccc(C)cc2C)cc1` [1-( -n-Butyl)-1-(4- -n-butylbenzyl)-3-(2,4-dimethylphenyl)urea], the inhibition at 5.2 µg/mL under setting [1] was 94.4%.

On to `CCCCN(Cc1ccc(F)cc1)C(=O)Nc1ccc(C)cc1C` [1-( -n-Butyl)-1-(4-fluorobenzyl)-3-(2,4-dimethylphenyl)urea], for which the inhibition at 5.2 µg/mL under setting [1] was 80.6%.

With `CCCCOc1ccc(CN(Cc2ccccc2)C(=O)Nc2cccc(C(F)(F)F)c2)cc1` [1-(n-Benzyl)-1-(4-n-butoxybenzyl)-3-(3-trifluoromethylphenyl)urea], the inhibition at 5.2 µg/mL under setting [1] was 87%.

As to `CCCCN(CC(C)(c1ccccc1)c1ccccc1)C(=O)Nc1ccc(C)cc1C` [1-(n-Butyl)-1-(2-methyl-2,2-diphenyl)ethyl-3-(2,4-dimethylphenyl)urea], the inhibition at 5.2 µg/mL under setting [1] came to 97.4%.

With `CCCCN(CCc1ccccc1)C(=O)Nc1ccc(C)cc1C` [1-(n-Butyl)-1-(2-phenylethyl)-3-(2,4-dimethylphenyl)urea], the inhibition at 5.2 µg/mL under setting [1] amounted to 87.9%.

As for `CCCCN(Cc1ccc2c(c1)OCO2)C(=O)Nc1ccc(C)cc1C` [1-(n-Butyl)-1-(3,4-methylenedioxybenzyl)-3-(2,4-dimethylphenyl)urea], the inhibition at 5.2 µg/mL under setting [1] was 88.2%.

On to `CCCCN(CCCc1ccccc1)C(=O)Nc1ccc(C)cc1C` [1-(n-Butyl)-1-(3-phenylpropyl)-3-(2,4-dimethylphenyl)urea], for which the inhibition at 5.2 µg/mL under setting [1] was 97.4%.

Regarding `CCCCN(Cc1ccc(Cl)cc1)C(=O)Nc1ccc(C)cc1C` [1-(n-Butyl)-1-(4-chlorobenzyl)-3-(2,4-dimethylphenyl)urea], the inhibition at 5.2 µg/mL under setting [1] is 94.6%.

Regarding `CCCCCCOc1ccc(CN(CCCC)C(=O)Nc2c(C)cc(C)cc2C)cc1` [1-(n-Butyl)-1-(4-hexyloxybenzyl)-3-(2,4,6-trimethylphenyl)urea], under setting [1], the inhibition at 5.2 µg/mL stood at 97.1%.

For the compound `CCCCN(Cc1ccc(OC)cc1)C(=O)Nc1ccc(C)cc1C` [1-(n-Butyl)-1-(4-methoxybenzyl)-3-(2,4-dimethylphenyl)urea], the inhibition at 5.2 µg/mL under setting [1] amounted to 94.2%.

For `CCCCN(Cc1ccc(C)cc1)C(=O)Nc1ccc(C)cc1C` [1-(n-Butyl)-1-(4-methylbenzyl)-3-(2,4-dimethylphenyl)urea], the inhibition at 5.2 µg/mL under setting [1] came to 96.7%.

Consider `CCCCN(Cc1ccc(-c2ccccc2)cc1)C(=O)Nc1ccc(C)cc1C` [1-(n-Butyl)-1-(4-phenylbenzyl)-3-(2,4-dimethylphenyl)urea], for which the inhibition at 5.2 µg/mL under setting [1] was 97.1%.

With `CCCCN(Cc1ccc(C(C)(C)C)cc1)C(=O)Nc1ccc(C)cc1C` [1-(n-Butyl)-1-(4-tert-butylbenzyl)-3-(2,4-dimethylphenyl)urea], under setting [1], the inhibition at 5.2 µg/mL is 96.4%.

Take `CCCCN(Cc1ccc(C(F)(F)F)cc1)C(=O)Nc1ccc(C)cc1C` [1-(n-Butyl)-1-(4-trifluoromethylbenzyl)-3-(2,4-dimethylphenyl)urea]: the inhibition at 5.2 µg/mL under setting [1] was determined as 93.3%.

In the case of `CCCCN(Cc1ccccc1)C(=O)Nc1cc(Cl)c(NC(=O)CCl)c(Cl)c1` [1-(n-Butyl)-1-(benzyl)-3-[4-(chloroacetamido)-3,5-dichlorophenyl]urea], the inhibition at 5.2 µg/mL under setting [1] is 72.9%.

Regarding `CCCCN(CCc1cccc(Br)c1)C(=O)Nc1ccc(C)cc1C` [1-(n-Butyl)-1-[2-(3-bromophenyl)ethyl]-3-(2,4-dimethylphenyl)urea], the inhibition at 5.2 µg/mL under setting [1] was found to be 97%.

Turning to `CCCCN(CCc1cccc(OC)c1)C(=O)Nc1ccc(C)cc1C` [1-(n-Butyl)-1-[2-(3-methoxyphenyl)ethyl]-3-(2,4-dimethylphenyl)urea], the inhibition at 5.2 µg/mL under setting [1] was 98.3%.

As to `CCCCN(CCc1ccc(Cl)cc1)C(=O)Nc1ccc(C)cc1C` [1-(n-Butyl)-1-[2-(4-chlorophenyl)ethyl]-3-(2,4-dimethylphenyl)urea], the inhibition at 5.2 µg/mL under setting [1] was determined as 93.3%.

Consider `CCCCN(CCc1ccc(F)cc1)C(=O)Nc1ccc(C)cc1C` [1-(n-Butyl)-1-[2-(4-fluorophenyl)ethyl]-3-(2,4-dimethylphenyl)urea], for which, under setting [1], the inhibition at 5.2 µg/mL is 96.1%.
